According to patent publication US10238743B2 (Merck Sharp & Dohme Corp., priority 2014, dated 2019):

Experiments:
[1] = target: purified human autoBACE-2 (Homo sapiens (Human), UniProt Q9Y5Z0); assay: BACE-2 Assay (BACE-HTRF assay); type: biochemical; conditions: Ki calculated from IC50 using the Cheng-Prusoff equation; QSY7-EISEVNLDAEFC-Eu-amide substrate, pH 5.0
Procedure: Inhibitor IC50s at purified human autoBACE-2 are determined in a time-resolved endpoint proteolysis assay that measures hydrolysis of the QSY7-[…]-Eu-amide FRET peptide substrate (BACE-HTRF assay). […] DMSO is present at 5% final concentration in the assay. Following laser excitation of sample wells at 320 nm, the fluorescence signal at 620 nm is collected for 400 ms following a 50 μs delay on a RUBYstar HTRF plate reader (BMG Labtechnologies). Raw RFU data is normalized to maximum (1.0 nM BACE/DMSO) and minimum (no enzyme/DMSO) RFU values. […] The Ki values are calculated from the IC50 using the Cheng-Prusoff equation.

[2] = target: soluble human BACE1 catalytic domain (Homo sapiens (Human), UniProt P56817); assay: BACE1 HTRF FRET Assay; type: biochemical; conditions: Ki calculated from IC50 using the Cheng-Prusoff equation; QSY7-APPswe-Eu substrate, pH 5.0; read-out: BACE-1 Ki
Excerpt: Na^+-Acetate pH 5.0; 1% Brij-35; Glycerol; Dimethyl Sulfoxide (DMSO); Recombinant human soluble BACE1 catalytic domain (>95% pure); APP Swedish mutant peptide substrate (QSY7-APP^swe-Eu): QSY7-EISEVNLDAEFC-Europium-amide.
A homogeneous time-resolved FRET assay can be used to determine IC50 values for inhibitors of the soluble human BACE1 catalytic domain. This assay monitors the increase of 620 nm fluorescence that resulted from BACE1 cleavage of an APPswedish APP^swe mutant peptide FRET substrate (QSY7-EISEVNLDAEFC-Europium-amide). This substrate contains an N-terminal QSY7 moiety that serves as a quencher of the C-terminal Europium fluorophore (620 nm Em). In the absence of enzyme activity, 620 nm fluorescence is low in the assay and increased linearly over 3 hours in the presence of uninhibited BACE1 enzyme. Inhibition of BACE1 cleavage of the QSY7-APP^swe-Eu substrate by inhibitors is manifested as a suppression of 620 nm fluorescence.
Varying concentrations of inhibitors at 3× the final desired concentration in a volume of 10 ul are preincubated with purified human BACE1 catalytic domain (3 nM in 10 μl) for 30 minutes at 30° C. in reaction buffer containing 20 mM Na-Acetate pH 5.0, 10% glycerol, 0.1% Brij-35 and 7.5% DSMO. Reactions are initiated by addition of 10 μl of 600 nM QSY7-APP^swe-Eu substrate (200 nM final) to give a final reaction volume of 30 μl in a 384 well Nunc HTRF plate. The reactions are incubated at 30° C. for 1.5 hours. The 620 nm fluorescence is then read on a Rubystar HTRF plate reader (BMG Labtechnologies) using a 50 millisecond delay followed by a 400 millisecond acquisition time window. Inhibitor IC50 values are derived from non-linear regression analysis of concentration response curves. Ki values are then calculated from IC50 values using the Cheng-Prusoff equation using a previously determined […] of 8 μM for the QSY7-APP^swe-Eu substrate at BACE1.

purified human autoBACE-2, sequence (Q9Y5Z0 63-473 limits assumed): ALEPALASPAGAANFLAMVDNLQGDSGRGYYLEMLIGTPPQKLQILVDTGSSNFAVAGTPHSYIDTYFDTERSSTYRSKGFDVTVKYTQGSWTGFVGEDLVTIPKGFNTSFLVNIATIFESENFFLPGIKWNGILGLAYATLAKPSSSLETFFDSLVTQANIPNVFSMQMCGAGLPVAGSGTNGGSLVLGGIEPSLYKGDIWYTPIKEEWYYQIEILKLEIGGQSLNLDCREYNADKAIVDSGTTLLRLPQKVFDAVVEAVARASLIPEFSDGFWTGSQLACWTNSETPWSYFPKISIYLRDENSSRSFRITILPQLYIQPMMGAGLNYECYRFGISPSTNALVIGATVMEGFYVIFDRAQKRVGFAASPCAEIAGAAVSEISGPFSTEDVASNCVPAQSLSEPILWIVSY
soluble human BACE1 catalytic domain, sequence (P56817 75-416): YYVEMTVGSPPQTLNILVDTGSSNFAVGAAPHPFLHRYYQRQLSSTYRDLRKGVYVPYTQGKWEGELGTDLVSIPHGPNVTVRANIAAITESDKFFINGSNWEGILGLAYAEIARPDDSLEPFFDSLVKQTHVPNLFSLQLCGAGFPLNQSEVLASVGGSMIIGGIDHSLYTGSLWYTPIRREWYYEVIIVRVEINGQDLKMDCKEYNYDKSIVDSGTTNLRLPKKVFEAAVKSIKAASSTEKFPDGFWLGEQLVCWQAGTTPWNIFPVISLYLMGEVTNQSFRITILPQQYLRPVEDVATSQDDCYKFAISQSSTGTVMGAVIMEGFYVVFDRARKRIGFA

Compound	Ki [1] [nM]	Ki [2] [nM]
CN1C(=N)N[C@]2(C)c3cc(NC(=O)c4ccc(OC(F)F)cn4)ccc3CCC[C@@H]2S1(=O)=O [Example 22, 5-(difluoromethoxy)-N-((4aS,11bR)-2-imino-3,11b-dimethyl-4,4-dioxido-1,2,3,4a,5,6,7,11b-octahydrobenzo[6,7]cyclohepta[1,2-e][1,2,4]thiadiazin-10-yl)picolinamide]	90	10
CN1C(=N)N[C@]2(C)c3cc(NC(=O)c4ccc(F)cn4)ccc3CCC[C@H]2S1(=O)=O [Example 37, 5-fluoro-N-((4aR,11bR)-2-imino-3,11b-dimethyl-4,4-dioxido-1,2,3,4a,5,6,7,11b-octahydrobenzo[6,7]cyclohepta[1,2-e][1,2,4]thiadiazin-10-yl)picolinamide]	96	159
COCC(=O)Nc1ccc2c(c1)[C@@]1(C)NC(=N)N(C)S(=O)(=O)[C@@H]1CCO2 [Example 4, N-((4aR,11bR)-2-imino-3,11b-dimethyl-4,4-dioxido-2,3,4a,5,6,11b-hexahydro-1H-benzo[2,3]oxepino[4,5-e][1,2,4]thiadiazin-10-yl)-2-methoxyacetamide]	890	1360
CN1C(=N)N[C@]2(C)c3cc(NC(=O)c4ccc(C#N)cn4)ccc3CCC[C@@H]2S1(=O)=O [Example 36]	25	4
Cc1cnc(C(=O)Nc2ccc3c(c2)[C@@]2(C)NC(=N)N(C)S(=O)(=O)[C@@H]2CCC3)cn1 [Example 40, N-((4aR,11bR)-2-imino-3,11b-dimethyl-4,4-dioxido-1,2,3,4a,5,6,7,11b-octahydrobenzo[6,7]cyclohepta[1,2-e][1,2,4]thiadiazin-10-yl)-5-methylpyrazine-2-carboxamide]	2710	1390
C#CCOc1ccc(C(=O)Nc2ccc3c(c2)[C@@]2(C)NC(=N)N(C)S(=O)(=O)[C@@H]2CCO3)nc1 [Example 6, N-((4aR,11bR)-2-imino-3,11b-dimethyl-4,4-dioxido-2,3,4a,5,6,11b-hexahydro-1H-benzo[2,3]oxepino[4,5-e][1,2,4]thiadiazin-10-yl)-5-(prop-2-yn-1-yloxy)picolinamide]	995	25
CN1C(=N)N[C@]2(C)c3cc(NC(=O)c4ncc(Cl)cc4F)ccc3OCC[C@@H]2S1(=O)=O [Example 13, 5-chloro-3-fluoro-N-((4aS,11bR)-2-imino-3,11b-dimethyl-4,4-dioxido-2,3,4a,5,6,11b-hexahydro-1H-benzo[2,3]oxepino[4,5-e][1,2,4]thiadiazin-10-yl)picolinamide]	4	4
COc1cnc2c(Nc3ccc4c(c3)[C@@]3(C)NC(=N)N(C)S(=O)(=O)[C@H]3CCC4)nccc2c1 [Example 46, (4aS,11bR)-2-imino-10-((3-methoxy-1,7-naphthyridin-8-yl)amino)-3,11b-dimethyl-1,2,3,4a,5,6,7,11b-octahydrobenzo[6,7]cyclohepta[1,2-e][1,2,4]-thiadiazine 4,4-dioxide]	251	108
